Experimental findings from ChEMBL document CHEMBL1141631, “Novel ketooxazole based inhibitors of fatty acid amide hydrolase (FAAH)” (Bioorg Med Chem Lett, 2008) are described below.

Series [1] deals with T1, Fatty-acid amide hydrolase 1 (Homo sapiens, UniProt O00519).
T1 sequence (O00519 whole entry): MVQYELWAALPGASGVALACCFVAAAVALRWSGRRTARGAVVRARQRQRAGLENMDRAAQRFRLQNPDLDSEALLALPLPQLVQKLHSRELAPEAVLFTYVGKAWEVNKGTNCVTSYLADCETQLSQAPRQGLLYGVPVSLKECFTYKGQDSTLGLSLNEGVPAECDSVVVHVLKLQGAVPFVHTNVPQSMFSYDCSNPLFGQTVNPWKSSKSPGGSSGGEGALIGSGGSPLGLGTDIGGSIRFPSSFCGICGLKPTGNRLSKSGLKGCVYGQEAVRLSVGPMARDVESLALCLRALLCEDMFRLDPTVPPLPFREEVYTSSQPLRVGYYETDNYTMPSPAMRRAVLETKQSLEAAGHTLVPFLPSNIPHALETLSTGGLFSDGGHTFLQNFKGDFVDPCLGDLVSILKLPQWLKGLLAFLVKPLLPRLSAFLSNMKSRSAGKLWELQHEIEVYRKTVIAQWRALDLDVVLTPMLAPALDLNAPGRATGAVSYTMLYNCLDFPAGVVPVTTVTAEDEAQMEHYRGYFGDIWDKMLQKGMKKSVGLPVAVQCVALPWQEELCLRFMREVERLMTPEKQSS
As to the kind of experiment: Inhibition of human FAAH.

The nature of series [2]: Plasma concentration in spinal nerve ligated rat model at 4 mg/kg, iv followed by infusion of 6 mg/kg/hr after 6 hrs. In kind it is ADME, organism-based.
For series [3], the species on record is Rattus norvegicus. The experiment in a line: Toxicity in spinal nerve ligated rat model assessed as motor impairment by rotarod test. The format is organism-based. The settings on record: in vivo. In general terms: The rotarod test checks motor coordination on a turning rod.
For series [4], the species on record is Rattus norvegicus. As to the kind of experiment: Reversal of tactile allodynia in spinal nerve ligated rat model. In kind it is functional.
The test system of series [5] is Rattus norvegicus. As to the kind of experiment: Reversal of tactile allodynia in spinal nerve ligated rat model at 4 mg/kg, iv followed by infusion of 6 mg/kg/hr after 6 hrs. The format is functional, organism-based.
Series [6] is described as follows: Aqueous solubility in water. The format is physicochemical.

What is called pIC50 is the negative decadic logarithm of the IC50, by convention in mol/L. In general, ED50 refers to the dose that gives a 50% effect, or the effect in half of the subjects. In general, solubility refers to the dissolved amount per volume that the medium holds. High values mean much dissolved substance, low ones little dissolved substance.

pIC50: −log10 of the molar value. In brackets after ≈: the same amount, converted by molar mass. Activity calls are given as the source filed them. The rule behind the calls is not given here.

On to `CC(C)S(=O)(=O)N1CCC(CCCC(=O)c2ncco2)CC1`, for which the pIC50 in series [1] was 6.85.

In the case of `CC(C)(C)OC(=O)N1CCC(CCCC(=O)c2ncco2)CC1`, the pIC50 in series [1] is 8.70.

In turn, `O=C(CCCC1CCN(C(=O)CCc2ccccc2)CC1)c1ncco1` gave a negative-log IC50 (pIC50) in series [1] of 7.66.

The compound `COc1ccc(CN2CCC(CCCC(=O)c3ncco3)CC2)cc1` showed a pIC50 in series [1] of 6.89.

Take `O=C(CCCCCCc1ccccc1)c1ncco1`: the pIC50 in series [1] was 7.37.

`COc1cccc(CN2CCC(CCCC(=O)c3ncco3)CC2)c1` showed a negative logarithm of the IC50 (pIC50) in series [1] of 7.47.

As for `O=C(CCCC1CCN(C(=O)CCC2CCCCC2)CC1)c1ncco1`, in series [1], the pIC50 is 8.52.

As for `O=C(CCCC1CCN(C(=O)c2ccccc2)CC1)c1ncco1`, the pIC50 in series [1] was 7.11.

For the compound `O=C(CCCC1CCNCC1)c1ncco1`, in series [1], the negative-log IC50 (pIC50) is 5.24.

In the case of `O=C(CCCC1CCN(C(=O)OCc2ccccc2)CC1)c1ncco1`, the pIC50 in series [1] is 8.40.

As for `CC(C)c1ccc(CN2CCC(CCCC(=O)c3ncco3)CC2)cc1`, in series [2], the concentration at 6 h came out at 1200 nM. Further, the Activity entry in series [3] is on record as “Non-toxic”. Besides, the median effective dose (ED50) in series [4] turned out to be 7.3 mg/kg. The outcome in series [5] was Active. This compound also displayed a solubility in series [6] of over 400 µg/mL. Moreover, the pIC50 in series [1] was 8.44.

In the case of `O=C(CCCC1CCN(S(=O)(=O)c2ccccc2)CC1)c1ncco1`, the pIC50 in series [1] was 8.60.

For the compound `O=C(CCCCCCc1ccccc1)c1ncc(-c2ccccn2)o1`, in series [6], the concentration in solution (solubility) was 16 µg/mL (≈ 47.8 µM).
